We go through 2 compounds from patent publication US12036212B2, “Enhancement of tumor response to chemotherapy by activation of the asmase/ceramide pathway through timed administration of a short-acting anti-angiogenic agent” (Memorial Sloan-Kettering Cancer Center, priority 2014, dated 2024).

For one experiment, the system named is ASMase. Kind of experiment: ASMase activation in HCAEC. The class given is cell-based, human. As to conditions: cisplatin 0.1-50 μM. As for the experimental part:
HCAEC were obtained from Clonetics™ Coronary Artery Endothelial Cell Systems (Cambrex Bio Science Inc.). For HCAEC culturing and sub-culturing Clonetics cell system components were used: EBM®-2, Endothelial Cell Basal Medium-2 with addition of Clonetics EGM-2-MV SingleQuots containing growth supplements (Cambrex) (Biomedical Technologies, Inc.). For sub-culturing, monolayers were dissociated with Clonetics® Trypsin/EDTA solution for 2-3 min at 22° C. at a split ratio of 1:4 to expand the cell population for experiments. HCAEC cultures were maintained at 37° C. in 5% CO2 humidified incubators.
ASMase activity was quantified by radioenzymatic assay using [^14C-methylcholine]sphingomyelin (Amersham) as substrate as described (Schissel et al. J Biol Chem, 271, 18431-18436, 1996). Cell lysates were incubated with [^14C-methylcholine]-sphingomyelin substrate (0.026 mCi/9.5 nmol) in 250 mM sodium acetate, pH 5.0 supplemented with 0.1% Triton X-100 and 1 mM EDTA or 0.1 mM ZnCl. Reactions were terminated after 1 h with CHCl3:MeOH:1N HCl (100:100:1, v/v/v), and [^14C-methylcholine]phosphocholine product in the aqueous layer of the Folch extract was quantified using a Beckman Packard 2200 CA Tricarb scintillation counter. For detection of ASMase activity in patients, 10 μl of serum was used. […]

A further experiment deals with HCT116 tumors. The experiment can be described thus: Tumor response in vivo, HCT116 tumors. Details: species or system mice. The protocol: (§1) Human HCT-116 colon cancer cells and MCA/129 murine sarcoma cells were maintained in DMEM with 10% fetal bovine serum, with 100 u/ml penicillin and 100 μg/ml streptomycin. Cells were grown as monolayers in 75 cm^2 culture flasks at 37° C. in 10% CO2 humidified incubators. Cells were trypsinized, washed in PBS and diluted in Matrigel/PBS solution (40:60 v/v) for HCT-116 xenografts or in PBS for MCA/129 syngeneic tumor grafts. Cells (3×10^6 for HCT-116 or 1×10^6 for MCA129) were injected subcutaneously into the flanks of mice (Garcia-Barros et al. Science 300, 1155-1159, 2003).
SCID^asmase+/+ and SCID^asmase−/− mice harboring HCT-116 tumors (50-100 mm^3) were treated with three i.p. injections of 35-50 mg/kg etoposide (Novaplus®), or 15-25 mg/kg paclitaxel (Hospira), or 1-6 mg/kg cisplatin (APP Pharmaceuticals, LLC) in a bi-weekly schedule with or without i.v. DC101 (1600 μg/25 gm mouse), or control IgG. For sarcoma studies, Sv129/Bl6 mice harboring MCA/129 tumors (100-150 mm^3) were treated with three i.p. injections of 240 mg/kg gemcitabine on a bi-weekly schedule with or without i.v. DC-101. Tumor volume, based on caliper measurements (length and width in millimeters), was calculated daily using the following formula: 0.5×length×width^2.
Tumor response to chemotherapy in the colorectal HCT116 xenograft model was evaluated. SCID^asmase+/+ or SCID^asmase−/− mice harboring HCT116 tumors (50-70 mm^3) were treated with paclitaxel (15/20/25 mg/kg i.p.) three times biweekly. […] To test that the ASMase requirement is mediated by the generation of ceramide, SCID^asmase+/+ mice harboring tumors as in FIG. 5A were treated with etoposide (35/35/50 mg/kg i.p.) biweekly in the presence of anti-ceramide or isotype control antibody.
(§2) To further test the ability of cisplatin to affect endothelial cell apoptosis and tumor response in vivo, effects of cisplatin on tumor growth were evaluated.
Thus, to further explore the notion of endothelial ASMase signaling requirement in response to chemotherapy, DC101 was used in combination with paclitaxel treatment.

A further experiment deals with human cells. Particulars: cited from earlier work.
The subject of experiment [1] is HCT116 human colorectal cancer xenografts. Kind of experiment: Endothelial apoptosis in vivo (TUNEL/MECA-32) in HCT116 xenografts. Details: species or system mice. Particulars: single dose paclitaxel 25 mg/kg, 4 hours. The protocol: as §1
To evaluate acute endothelial apoptosis, tumors were grown in mice and treated with drugs as above. After the first treatment, tumors were harvested at specified times, placed into formalin overnight and paraffin-embedded the next day. Paraffin-embedded sections (5 μm) were co-stained for apoptotic endothelium using TUNEL and the endothelial-specific monoclonal antibody MECA-32 (Developmental Studies Hybridoma Bank, developed under the auspices of the NICHD and maintained by The University of Iowa, IA). […]
as §2

On to `N.N.[Cl][Pt][Cl]` [cisplatin], for which, in the experiment with ASMase, the ASMase activation entry was “failed to activate ASMase”. Moreover, the Tumor growth delay entry in the experiment on HCT116 tumors (cisplatin 3×6 mg/kg) is reported as “did not induce significant HCT116 tumor growth delay”. Further, in the experiment on human cells, the ASMase result was “increase ASMase” and the Apoptosis entry is given as “induce apoptosis”.

`CC(=O)O[C@H]1C(=O)[C@@]2(C)[C@H]([C@H](OC(=O)c3ccccc3)[C@]3(O)C[C@H](OC(=O)[C@H](O)[C@@H](NC(=O)c4ccccc4)c4ccccc4)C(C)=C1C3(C)C)[C@]1(OC(C)=O)CO[C@@H]1C[C@@H]2O` [paclitaxel]: in the experiment with HCT116 tumors (SCID asmase+/+, 3×15 mg/kg paclitaxel or 1600 μg DC101 alone), the “Tumor response, agent alone” value is “slightly affected”. The “Complete tumor response after” value in the experiment with HCT116 tumors (SCID asmase+/+, paclitaxel 15/20/25 mg/kg i.p. three times biweekly) came out at 10 ± 1 days. Further, the Tumor response entry with HCT116 tumors (SCID asmase−/−, paclitaxel 15/20/25 mg/kg i.p. three times biweekly) was “no significant tumor response”. Further, the Tumor endothelial apoptosis result is “robust endothelial apoptosis” in experiment [1] (SCID asmase+/+) and “resistant to chemotherapy-induced endothelial cell apoptosis” in experiment [1] (SCID asmase−/−).
